Source: PubChem BioAssay (NCI)
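Method: 48-hour compound exposure of cells in 96-well plates, five concentrations, linear interpolation of endpoints. TGI: concentration producing complete growth inhibition.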

Assays:
Test in all cases: DTP human tumour cell line panel, 48 h
EKVX NSCLC = test system: EKVX NSCLC
SR leukemia = test system: SR leukemia
COLO 205 colon = test system: COLO 205 colon
MOLT-4 leukemia = test system: MOLT-4 leukemia
SK-OV-3 ovarian = test system: SK-OV-3 ovarian
HOP-92 NSCLC = test system: HOP-92 NSCLC
RXF 393 renal = test system: RXF 393 renal
OVCAR-5 ovarian = test system: OVCAR-5 ovarian
BT-549 breast = test system: BT-549 breast
SK-MEL-5 melanoma = test system: SK-MEL-5 melanoma
LOX IMVI melanoma = test system: LOX IMVI melanoma
SK-MEL-28 melanoma = test system: SK-MEL-28 melanoma
OVCAR-8 ovarian = test system: OVCAR-8 ovarian
NCI-H522 lung = test system: NCI-H522 lung
PC-3 prostate = test system: PC-3 prostate
UACC-257 melanoma = test system: UACC-257 melanoma
SF-268 CNS = test system: SF-268 CNS
SF-539 CNS = test system: SF-539 CNS
SNB-19 CNS = test system: SNB-19 CNS
HL-60(TB) leukemia = test system: HL-60(TB) leukemia
UACC-62 melanoma = test system: UACC-62 melanoma
SN12C renal = test system: SN12C renal
NCI-H460 lung = test system: NCI-H460 lung
A498 renal = test system: A498 renal
OVCAR-3 ovarian = test system: OVCAR-3 ovarian
SF-295 CNS = test system: SF-295 CNS
MALME-3M melanoma = test system: MALME-3M melanoma
RPMI-8226 leukemia = test system: RPMI-8226 leukemia
K-562 leukemia = test system: K-562 leukemia
HCC-2998 colon = test system: HCC-2998 colon
NCI-H23 lung = test system: NCI-H23 lung
MDA-MB-231 breast = test system: MDA-MB-231 breast
CAKI-1 renal = test system: CAKI-1 renal
U251 CNS = test system: U251 CNS
TK-10 renal = test system: TK-10 renal
NCI-H226 lung = test system: NCI-H226 lung
HCT-15 colon = test system: HCT-15 colon
MCF7 breast = test system: MCF7 breast
MDA-MB-435 = test system: MDA-MB-435
NCI/ADR-RES ovarian = test system: NCI/ADR-RES ovarian
DU-145 prostate = test system: DU-145 prostate
UO-31 renal = test system: UO-31 renal
IGROV1 ovarian = test system: IGROV1 ovarian
MDA-N = test system: MDA-N
HOP-62 NSCLC = test system: HOP-62 NSCLC
HS 578T breast = test system: HS 578T breast
SK-MEL-2 melanoma = test system: SK-MEL-2 melanoma
OVCAR-4 ovarian = test system: OVCAR-4 ovarian
T-47D breast = test system: T-47D breast
A549 NSCLC = test system: A549 NSCLC
ACHN renal = test system: ACHN renal
M14 melanoma = test system: M14 melanoma
CCRF-CEM leukemia = test system: CCRF-CEM leukemia
HCT-116 colon = test system: HCT-116 colon
786-0 renal = test system: 786-0 renal
KM12 colon = test system: KM12 colon
SNB-75 CNS = test system: SNB-75 CNS
HT29 colon = test system: HT29 colon

Brc1ccccc1/C=C\C1(c2ccccc2)OCCO1
TGI (EKVX NSCLC): 30.6 µM | TGI (SR leukemia): 8.33 µM | TGI (COLO 205 colon): 37.7 µM | TGI (MOLT-4 leukemia): 9.23 µM | TGI (SK-OV-3 ovarian): 26.5 µM | TGI (HOP-92 NSCLC): 46.9 µM | TGI (RXF 393 renal): 27.7 µM | TGI (OVCAR-5 ovarian): 29.5 µM | TGI (BT-549 breast): 39 µM | TGI (SK-MEL-5 melanoma): 29.1 µM | TGI (LOX IMVI melanoma): 11.6 µM | TGI (SK-MEL-28 melanoma): 46.9 µM | TGI (OVCAR-8 ovarian): 24.5 µM | TGI (NCI-H522 lung): 22.6 µM | TGI (PC-3 prostate): 34.1 µM | TGI (UACC-257 melanoma): 34.5 µM | TGI (SF-268 CNS): 16 µM | TGI (SF-539 CNS): 25.7 µM | TGI (SNB-19 CNS): 28.9 µM | TGI (HL-60(TB) leukemia): > 52.3 µM | TGI (UACC-62 melanoma): 28 µM | TGI (SN12C renal): 27.4 µM | TGI (NCI-H460 lung): 34.2 µM | TGI (A498 renal): 25.9 µM | TGI (OVCAR-3 ovarian): 25.5 µM | TGI (SF-295 CNS): 26.4 µM | TGI (MALME-3M melanoma): 29.9 µM | TGI (RPMI-8226 leukemia): 6.78 µM | TGI (K-562 leukemia): > 100 µM | TGI (HCC-2998 colon): 32.2 µM | TGI (NCI-H23 lung): 20.5 µM | TGI (MDA-MB-231 breast): 25.4 µM | TGI (CAKI-1 renal): 16.3 µM | TGI (U251 CNS): 18.4 µM | TGI (TK-10 renal): 31.7 µM | TGI (NCI-H226 lung): 38.2 µM | TGI (HCT-15 colon): 19.5 µM | TGI (MCF7 breast): 18.1 µM | TGI (MDA-MB-435): 24.6 µM | TGI (NCI/ADR-RES ovarian): 32.7 µM | TGI (DU-145 prostate): 26.7 µM | TGI (UO-31 renal): 20 µM | TGI (IGROV1 ovarian): 29.3 µM | TGI (MDA-N): 25.3 µM | TGI (HOP-62 NSCLC): 27.7 µM | TGI (HS 578T breast): 17.3 µM | TGI (SK-MEL-2 melanoma): 44.7 µM | TGI (OVCAR-4 ovarian): 14.8 µM | TGI (T-47D breast): 31.4 µM | TGI (A549 NSCLC): 32.8 µM | TGI (ACHN renal): 21.3 µM | TGI (M14 melanoma): 25.6 µM | TGI (CCRF-CEM leukemia): > 33.2 µM | TGI (HCT-116 colon): 11.9 µM | TGI (786-0 renal): 24.3 µM | TGI (KM12 colon): 7.17 µM | TGI (SNB-75 CNS): 28.6 µM | TGI (HT29 colon): 19 µM
